Test results reported in US20210000953A1, “USE OF IMMUNE CHECKPOINT INHIBITORS IN CENTRAL NERVOUS SYSTEMS NEOPLASMS” (Bristol-Myers Squibb Company, priority 2014, published 2021).
“Also recorded” adds a separate entry of the source.

Tests used:
recurrent GBM = assay: Study CA209143 safety lead-in cohorts (Cohort 1, 1b): investigator-assessed tumor response per RANO (brain MRI) and overall survival; type: in vivo, human
Method: A randomized, open-label, multicenter, phase 3 study of nivolumab monotherapy versus bevacizumab and a safety study of nivolumab and nivolumab in combination with ipilimumab is conducted in adult (>18 years) subjects with a first recurrence of GBM after treatment with radiotherapy and temozolomide. Since the use of nivolumab and ipilimumab has not previously been studied in subjects with GBM, a safety lead-in (Cohort 1) consisting of approximately 10 subjects in each of two treatment arms are enrolled and randomized to treatment with either Arm N (nivolumab monotherapy) or Arm N+I (nivolumab combined with ipilimumab). Tolerability and safety of a treatment arm is determined after all subjects in the arm completed four doses or discontinued dosing prior to completing four doses. A safety evaluation of Cohort 1 is conducted for each arm based on criteria described herein.
In order to better characterize preliminary safety and tolerability for the combination therapy, an additional, non-randomized safety cohort (Cohort 1b) to evaluate an alternate dosing regimen is initiated for the combination therapy (nivolumab 3 mg/kg+ipilimumab 1 mg/kg every 3 weeks for 4 cycles followed by nivolumab 3 mg/kg thereafter). Evaluation of the efficacy of nivolumab+ipilimumab combination therapy will be evaluated separately. Information from subjects treated with combination therapy in Cohort 1 and Cohort 1b will provide a basis for dose selection for future studies in subjects with GBM.
All subjects received efficacy assessments with brain MRI with contrast on Day 1 Week 7, Day 1 Week 13, and then one time every 8 weeks (±1 week). MRIs occurred at ±7 days per scheduled visits. Investigators will obtain more frequent follow-up MRI scans as medically indicated.
The primary efficacy measure of the study is overall survival (OS). OS is defined as the time between the date of randomization and the date of death due to any cause. OS is followed continuously while subjects are on study drug and every 3 months via in-person or phone contact during the survival follow-up phase of the study.
Investigator-assessed tumor response is based upon published RANO criteria. Tumor assessments are performed as shown above in the imaging assessment for the study. Radiologic response was assessed by comparing the pretreatment baseline and on-treatment MRI scans. Radiologic progression was determined by using the smallest tumor measurement at either the pretreatment baseline or after initiation of study medication.
A complete response required: complete disappearance of all enhancing measurable and nonmeasurable disease sustained for at least 4 weeks; no new lesions; stable or improved nonenhancing (T2/FLAIR) lesions; patients must be off corticosteroids (or on physiologic replacement doses only); and stable or improved clinically. Patients with nonmeasurable disease only cannot have a complete response; the best response possible is stable disease. […]

[1] = system: resected GBM tumor tissue; assay: Histopathology of tumor tissue resected at suspected progression; type: in vivo, human
Description: In those cases in which radiologic progression cannot be differentiated from pseudoprogression and it is the investigator's opinion that a surgical resection to obtain tumor tissue for histopathology is in the subject's best interests, a surgical resection may be performed following consultation with the BMS medical monitor. Tumor biopsy samples (blocks or slides) must be submitted for central review by a neuropathologist to minimize any inter-observer variation in the histopathologic assessment of progression versus treatment-related changes. If tumor pathology confirms progression, then the subject will be discontinued from study medication per protocol discontinuation criteria and the date of progression will be the day that it was first suspected. […] An MRI after the resection is required prior to treatment continuation. The subject will then continue all on-treatment tumor assessments as per the treatment schedule.
In those cases in which radiologic progression cannot be differentiated from pseudoprogression and the subject undergoes a biopsy or diagnostic surgical resection to obtain tumor tissue for histopathology analysis, representative tumor tissue samples will be reviewed locally and submitted for central review by a neuropathologist. If there is discordance between the central and local neuropathologic determination of progression versus treatment-associated changes (pseudoprogression), then a second central neuropathologic review will be performed and serve as the final adjudication of the histopathologic determination. Central review of histopathology will be blinded to the subject treatment arm assignment. Specific instructions will be provided to the investigative sites regarding the requirements for submission of tumor tissue for central neuropathologic review.

Tregs = assay: Cytokine release from sorted Tregs (CD4+CD25+CD127−) ± stimulation; type: cell-based, human; settings: GBM patients on nivolumab treatment
Method: Analyses were performed on peripheral blood drawn from patients at predetermined time points (FIG. 13) and tumor tissue samples were obtained if resection was performed at the time of progression or suspected progression. Baseline and on-treatment samples were obtained from patients (n=20) randomized 1:1 to receive either nivolumab 3 mg/kg every 2 weeks (Q2W) or nivolumab 1 mg/kg+ipilimumab 3 mg/kg every 3 weeks followed by nivolumab 3 mg/kg Q2W (FIG. 13). Phenotypic, maturation, and proliferation analyses were performed using flow cytometry with population-specific antibody panels (Table 11). Cytokine release analyses were carried out on supernatants from sorted Tregs (CD4+CD25+CD127−)±stimulation (PMA+ionomycin). The anti-tumor-associated antigen (TAA) activity of peripheral blood mononuclear cells (PBMCs) and tumor-infiltrating lymphocytes (TILs) was evaluated. Cells were stimulated with interleukin (IL)-2, IL-15, and TAA peptides; after 9 days of culture with IL-2 and IL-15, cells were restimulated with IL-2, IL-15, and TAA peptides. Production of interferon (IFN)γ/granzyme B was assayed using a dual-color FluoroSpot assay.

[2] = exploratory analysis, Cohort 1, recurrent GBM, N = 10 per arm, same regimens
[3] = investigator-assessed per RANO, Cohort 1, recurrent GBM, N = 10 per arm, nivolumab 3 mg/kg Q2W or nivolumab 1 mg/kg + ipilimumab 3 mg/kg Q3W x4 then nivolumab 3 mg/kg Q2W
[4] = case: nivolumab 3 mg/kg, after five treatments

## nivolumab
Recurrent GBM; Cohort 1 nivolumab monotherapy 3 mg/kg, RANO
  Patients who experienced stable disease or better: 6/10
Recurrent GBM; Cohort 1 nivolumab monotherapy arm, cutoff Sep. 9, 2015
  Time on treatment of the one patient still receiving nivolumab at cutoff: 17.5 months
Recurrent GBM; case: Cohort 1 Arm N, nivolumab 3 mg/kg monotherapy
  Brain MRI following three treatments: disease progression as per RANO
Recurrent GBM; case: MGMT methylated, EGFRvIII positive GBM, nivolumab 3 mg/kg
  Response according to RANO criteria: partial response
Recurrent GBM; case: nivolumab 3 mg/kg
  Brain MRI four weeks after resection: did not show tumor growth
Recurrent GBM; case: nivolumab 3 mg/kg delayed, dexamethasone 4 mg BID
  Brain MRI on Aug. 28, 2014: improvement with resolution of rim enhancement
Recurrent GBM; case: nivolumab 3 mg/kg, treated 227 days
  Death, time after randomization: 397 days
Recurrent GBM; case: nivolumab 3 mg/kg, 90 at baseline
  Karnofsky performance status at all subsequent visits: 90
Recurrent GBM; case: nivolumab 3 mg/kg, hippocampus and right hypothalamus, proven on autopsy
  Time to distant disease progression after resuming nivolumab following surgery: 4 months
Recurrent GBM; exploratory analysis, Cohort 1, recurrent GBM, N = 10 per arm, nivolumab 3 mg/kg Q2W or nivolumab 1 mg/kg + ipilimumab 3 mg/kg Q3W x4 then nivolumab 3 mg/kg Q2W, NE: not estimated
  Overall survival: Median, months (95% CI): 10.5 (4.1-NE)^ months
Recurrent GBM; [2]
  Overall survival: 6-month rate (95% CI): 70.0% (32.9-89.2)
  Overall survival: 9-month rate (95% CI): 60.0% (25.3-82.7)
  Overall survival: 12-month rate (95% CI): 40.0% (12.3-67.0)
  Overall survival: Range, months: 4.1-17.6 months
Recurrent GBM; [3]
  Best overall response: Complete Response: 0 n (%)
  Best overall response: Partial Response: 1 (10) n (%)
  Best overall response: Progressive Disease: 3 (30) n (%)
  Best overall response: Stable Disease: 5 (50) n (%)
  Best overall response: Unable to Determine: 1 (10) n (%)
[1]; case: after five doses of nivolumab 3 mg/kg Q2W, suspected progression
  Histopathology of the resected tumor: immune infiltration consistent with treatment-related changes; also recorded: consistent with significant treatment-related changes
[1]; [4]
  Pathology review of resection, occipital area: viable tumor in samples from the occipital area with infiltrating T-lymphocytes
  Pathology review of resection, periventricular area: only necrosis and fibrinous exudate (radiation necrosis) and large aggregates of lymphocytes with no tumor
Tregs
  Production of IFNγ by Tregs: increase production of IFNγ
